Results from US20090011975A1, “TARGETED BONE MARROW PROTECTION AGENTS” (Semafore Pharmaceuticals Inc., priority 2003, published 2009).
Read-outs that look alike come from different tables or passages of the source.

Legend:
[1] = Reversibility of acyl methylenes in phosphate buffer; type: physicochemical; conditions: 50 mM phosphate buffer
Protocol: A prodrug strategy was devised using cyclized PFT-β and a structure activity relationship to obtain a prodrug linkage that converts to the native drug with about a 3 day half-life. A key novel intermediate (BI) (the chemical structure of which is set forth in FIG. 22) was generated in greater than 90% yield and >95% purity. […] This allowed preparation of the acyl methylene compounds recited in Table 2. All of the compounds of Table 2 were diluted into 50 mM phosphate buffer at pH=7.4 and pH=4.8 at room temperature and analyzed over time for stability. The amount of PFT-β was quantitated, and the amount of acyl methylene disappearing over time was quantitated by LCMS. A half-life for the cleavage of the acyl methylenes to generate PFT-β under relevant physiological conditions was determined. These half lives are set forth in Table 2 associated with the structures.

[2] = Conversion of PFT-α to PFT-β in human serum; type: in vitro ADME; conditions: for peak area (254 nm), Human Serum Stability: PFT-α initially 50 μMolar, 37° C.
Protocol: (§1) A 10.0 mMolar solution of PFT-α in DMSO was prepared. A 5 μL aliquot of the solution was diluted with 495 μL of methanol, and further diluted with 500 μL of acetonitrile to produce a comparison standard 50 μMolar solution. Five 5 μL aliquots of 10.0 mMolar solution of PFT-α in DMSO was added to each of five plastic vials containing 495 μL of human serum (Sigma-Aldrich), and the vials were capped. The solution was mixed thoroughly and allowed to stand at 37° C. At different timepoints, each of the 5 vials were removed from heat, cooled to room temperature, and the solution was diluted with 500 μL of acetonitrile to precipitate proteins and nondesirable solutes. Each mixture was vortexed vigorously, passed through a 0.2 um Whatman Uniprep sample filter device, and analyzed by LC-MS (the methods of which are described in Example 12). The UV areas for the peak corresponding to PFT-α (retention time=1.8 minutes) and for the peak corresponding to PFT-β (retention time=3.9 minutes) were tabulated.

[3] = Conversion of PFT-α to PFT-β in phosphate buffer pH 7.4; type: physicochemical; conditions: for peak area (254 nm), Phosphate Buffer pH = 7.4 Stability: PFT-α initially 50 μMolar, 37° C.
Protocol: as §1
The method set forth above was repeated wherein 50 mMolar phosphate buffer (pH=7.4) was substituted for human serum.

[4] = tested on: C8 cells (mouse embryo fibroblasts transformed with E1a+ras); conditions: cited from earlier work
[5] = tested on: C57BL strain and Balb/c strain mice; conditions: cited from earlier work
p53-null mice = conditions: PFT-α injections; cited from earlier work
[6] = Affinity of bone targeting agents to hydroxyapatite (supernatant LCMS); type: binding; conditions: 0.100 mM test solution in TBS pH 7.40, HA suspension 1.00 or 10.0 mg/ml, 1 hour (FIG. 25)
Protocol: To determine the affinity of the bone targeting agents to hydroxyapatite, the method described in Willson et al., Biorganic & Medicinal Chemistry Letters, 6(9), 1043-1046 (1996) for determining bone affinity using HPLC retention on a hydroxyapatite column was modified. The affinity of several bone targeting agents was determined using the following method. […] The suspension was diluted to prepare a 1.00 mg/ml HA suspension by stirring on a magnetic stir plate at the slowest speed necessary to create a uniform suspension appropriate for sampling. Each tested compound was dissolved in TBS at a concentration of 0.100 mM. 200 μl of test solution was mixed with 200 μl of TBS, HA at 1.00 mg/ml, or HA at 10.0 mg/ml, and agitated on an orbital shaker at 200 rpm for 1 hour. Each experiment was performed in triplicate. The supernatant solution was analyzed using single ion monitoring (SIM) mass spectral mode on a Shimadzu LCMS-2010 liquid chromatograph-mass spectrometer. The SIM counts in the test compound/TBS solutions were set at 100%. The amount of test compound present in the HA supernatant test solutions was expressed as a percentage of the amount of test compound available with no hydroxyapatite present. Tetracycline was included as a positive control.

[7] = tested on: p53-mediated transcription; experiment: p53-mediated transcription, MASPIN promoter-luciferase in HBECs; type: cell-based, human; conditions: PFT-β liberated from (BH) on hydroxyapatite, HBECs transfected with wild type p53 plasmid (FIG. 27)
Protocol: The binding to hydroxyapatite to the bone targeted prodrug (BH) and its conversion over time to liberate PFT-β was described in Example 10. The PFT-β liberated (5.11 millimolar solution from Example 10) was assayed for its biological activity by evaluating the degree of p53-mediated transcription in the presence and absence of the liberated PFT-β. The assay comprised transiently transfecting human brain endothelial cells (HBECs) with a plasmid comprising the MASPIN promoter, which contains two p53 binding sites, operably linked to the luciferase gene. A group of HBECs was transiently transfected with a plasmid encoding wild type p53. Thus, if p53 produced in the transfected HBECs is active, transcription of the luciferase gene will be activated and the produced luciferase detected. p53-mediated transcription is measured relative to the internal control plasmid pCMVβ-galactosidase to control for transfection efficiency.
The results of the assay are set forth in the bar graph of FIG. 27, the data of which represents fold induction of p53-specific transcriptional activity in HBECs. Column 1 of FIG. 27 represents a negative control resulting from HBECs not transfected with the wild type p53 plasmid. Column 2 of FIG. 27 represents data obtained from HBECs transfected with the wild type p53 plasmid which were not exposed to PFT-β. […]

Aqueous solubility = type: physicochemical
[8] = Binding of (BH) to hydroxyapatite and resistance to washing
Protocol: The final conjugate (BH) (see Table 2) was synthesized (assembled) as described and purified by HPLC. […] A 900 μL aliquot of 1.9 mM (BH) in 5 mM phosphate buffer at pH=7 was mixed with 100 μL of an hydroxyapatite suspension (25 weight percent hydroxyapatite; Sigma) containing approximately 25 mg of hydroxyapatite. The suspension was mixed gently for 15 minutes and then centrifuged at 10,000 rpm for one minute. A 100 μL aliquot was removed and analyzed by electrospray LCMS and compared to a standard solution that had not been exposed to hydroxyapatite. […] The supernatant was decanted from the hydroxyapatite solid, an additional 900 μL of de-ionized water was added, and the mix was shaken vigorously for 20 seconds. The suspension was then centrifuged at 10,000 rpm for one minute. A 100 μL aliquot of suspension was removed and analyzed by electrospray LCMS and compared to the standard solution that had not been exposed to hydroxyapatite. […] The supernatant was decanted from the hydroxyapatite solid, an additional 900 μL of de-ionized water was added, and the mix was shaken vigorously for 20 seconds. The suspension was then centrifuged at 10,000 rpm for one minute. A 100 μL aliquot was removed and analyzed by electrospray LCMS and compared to the standard solution. […] Thus, of the original 1.74 μMoles of (BH) present in the supernatant and exposed to the hydroxyapatite, a total of 0.48 μMoles was recovered in the original supernatant plus the two water washes.

[9] = Liberation of PFT-β from hydroxyapatite-bound (BH) over time; type: physicochemical
Protocol: The hydroxyapatite of the suspension was then resuspended in wash number 2 supernatant by pipetting up and down. A 20 μL aliquot of the resulting 900 μL suspension was removed and extracted with methanol. An analysis of the methanol extract by LCMS (versus a standard of (BH)) indicated no detectable (BH) was extractable from the hydroxyapatite sample known to contain the 1.26 μMoles of (BH) described above. […] The suspension was then gently rocked for 34 hours. A 20 μL aliquot was removed and analyzed after extraction with methanol. […] An addition aliquot of the gently mixed suspension was obtained after a total 153 hours contained no detectable, extractable (BH).

[10] = pH 4.8, room temperature, read-out: Half Life pH = 4.8
[11] = pH 7.4, room temperature, read-out: Half Life pH = 7.4 (converted)

Molecule | half-life at 100 µM [1, 10] | half-life at 100 µM [1, 11] | peak area (254 nm), Human Serum Stability ([2]; 0 hours) | peak area (254 nm), Human Serum Stability ([2]; 1.5 hours) | peak area (254 nm), Human Serum Stability ([2]; 3 hours) | peak area (254 nm), Human Serum Stability ([2]; 4.5 hours) | peak area (254 nm), Human Serum Stability ([2]; 17 hours) | peak area (254 nm), Phosphate Buffer pH = 7.4 Stability ([3]; 0 hours) | peak area (254 nm), Phosphate Buffer pH = 7.4 Stability ([3]; 1.5 hours) | peak area (254 nm), Phosphate Buffer pH = 7.4 Stability ([3]; 3 hours) | peak area (254 nm), Phosphate Buffer pH = 7.4 Stability ([3]; 4.5 hours) | peak area (254 nm), Phosphate Buffer pH = 7.4 Stability ([3]; 17 hours) | affinity to hydroxyapatite [6] | also measured
CC(=O)OC[n+]1c(-c2ccc(C)cc2)cn2c3c(sc21)CCCC3 [BG] | > 20.8 days | > 20.8 days |  |  |  |  |  |  |  |  |  |  |  | 
Cc1ccc(C(=O)Cn2c3c(sc2=N)CCCC3)cc1 [PFT-α, 2-[2-imino-4,5,6,7-tetrahydro-1,3-benzothiazol-3(2H)-yl]-1-(4-methylphenyl)-1-ethanone] |  |  | 547169 | 312351 | 156823 | 118842 | 7927 | 584109 | 448284 | 303800 | 227004 | 18724 |  | time in which half of PFT-α is converted to PFT-β ([2]; human serum, initial 50 μMolar): about 3 hours; time in which half of PFT-α is converted to PFT-β ([3]; phosphate buffer, initial 50 μMolar): about 1.8 hours; inhibition of apoptosis induced by doxorubicin, etoposide, paclitaxel, cytosine arabinoside, UV light, and gamma radiation ([4]; 10 micromolar concentration): inhibited apoptosis; protection on pretreatment of cells and removal of the compound before the stress-inducing event ([4]; pretreatment, compound removed before stress): no significant protection; tumors or pathological lesions in gamma-irradiated survivors ([5]; 7 months post-irradiation): No tumors or pathological lesions; rescue from 60% killing doses of gamma radiation ([5]; single intraperitoneal injection 2.2 mg/kg, 8 Gy C57BL, 6 Gy Balb/c): completely rescued; weight-loss versus controls ([5]; treated irradiated animals): less weight-loss than controls; protective effect in p53-null mice treated with radiation (p53-null mice): no protective effect
Phenyphosphonic acid [BK] |  |  |  |  |  |  |  |  |  |  |  |  | no observable affinity | 
Cc1ccc(-c2cn3c4c(sc3n2)CCCC4)cc1 [PFT-β, 2-p-Tolyl-5,6,7,8-tetrahydro-benzo[d]imidazo[2,1-b]thiazole] |  |  | 13781 | 259004 | 448826 | 512198 | 696098 | 13032 | 176201 | 307793 | 427152 | 601840 |  | biological activity (inhibition of p53-mediated transcription) [7]: biologically active; aqueous solubility (Aqueous solubility): about 3 μMolar
Cc1ccc(-c2cn3c4c(sc3[n+]2COC(=O)c2ccc(CN(CP(=O)(O)O)CP(=O)(O)O)cc2)CCCC4)cc1 [BH] | > 20.8 days | 3.23 days |  |  |  |  |  |  |  |  |  |  | almost identical to that of (BC) | originally present (BH) bound to the hydroxyapatite solid ([8]; 1.9 mM in 5 mM phosphate buffer pH 7, approx. 25 mg hydroxyapatite, 15 minutes): 77%; originally present (BH) in the supernatant, wash number 1 ([8]; 900 μL de-ionized water wash 1): 3.5%; originally present (BH) in the supernatant, wash number 2 ([8]; 900 μL de-ionized water wash 2): 0.6%; (BH) remained in the supernatant solution ([8]; after 15 minutes with hydroxyapatite): 23%; (BH) adsorbed to the hydroxyapatite so as to resist washing off ([8]; of original 1.74 μMoles): 1.26 µmol; total recovered in the original supernatant plus the two water washes ([8]; of original 1.74 μMoles): 0.48 µmol; (BH) extractable with methanol from hydroxyapatite ([9]; 34 hours): no detectable; prodrug cleavage product PFT-β, percent of the 1.26 μMoles sorbed ([9]; 34 hours): 19.6%; (BH) extractable with methanol from hydroxyapatite ([9]; 105 hours): no detectable; prodrug cleavage product PFT-β, percent of the 1.26 μMoles sorbed ([9]; 105 hours): 29.1%; (BH) extractable with methanol from hydroxyapatite ([9]; 153 hours): no detectable; prodrug cleavage product PFT-β, percent of the 1.26 μMoles sorbed ([9]; 153 hours): 37.5%; (BH) extractable with methanol from hydroxyapatite ([9]; start, after washes): no detectable; prodrug cleavage product PFT-β, percent of the 1.26 μMoles sorbed ([9]; start, after washes): < 7%
